Data taken from patent US20090239898A1 (SCIENCOM LTD., priority 2003, published 2009).

Tests used:
semi-comatose patient = details: reverts when drug action subsides; cited from earlier work
abnormal baboon = details: cited from earlier work
[1] = system: patient who had suffered a stroke; assay: Clinical observation after zolpidem in a stroke patient (Example 1); assay type: in vivo, human; details: 10 mg zolpidem
Source text: They had suffered a stroke several years before and presented with left-sided paraplegia since the onset of their stroke. Their cognition was still normal but they had some aphasia and decreased proprioseption that was evident from their inability to use scissors with their right hand. The clinical and neurological features of the patient were unremarkable apart from the above.

[2] = system: patients with Spinocerebellar Ataxia Type 2; assay: Clinical response to zolpidem in a family with Spinocerebellar Ataxia Type 2 (Example 2); assay type: in vivo, human
Source text: There is currently no effective pharmacologic treatment for spinocerebellar ataxia. […] Spinocerebellar Ataxia Type 2 was confirmed by molecular analysis.

[3] = system: patient with Ramsay-Hunt syndrome; assay: Zolpidem therapy of Ramsay-Hunt syndrome (Example 3); assay type: in vivo, human
Source text: On treatment, the following features improved. […] Also, as part of the syndrome they could not close their left eye. After zolpidem they could.

[4] = system: patient after subarachnoid haemorrhage; assay: Hearing and speech evaluation before and after zolpidem after subarachnoid haemorrhage (Example 4); assay type: in vivo, human
Experimental: The patient was then examined for any changes in hearing. […] The patient was also evaluated by the speech therapist before and after zolpidem.

[5] = system: patient after subarachnoid haemorrhage; assay: Brain SPECT before and after zolpidem after subarachnoid haemorrhage (Example 4); assay type: in vivo, human; details: 1 hour after 10 mg zolpidem
Parkinson's disease = details: in vivo; cited from earlier work

CN1C(=O)CN=C(c2ccccc2)c2cc(Cl)ccc21 [diazepam]
state of consciousness after drug application (semi-comatose patient): not awakened

CCOC(=O)c1ncn2c1CN(C)C(=O)c1cc(F)ccc1-2 [flumazenil]
effect on zolpidem-induced asymmetric perfusion pattern (abnormal baboon; abnormal baboon): attenuates the influence of zolpidem

Cc1ccc(-c2nc3ccc(C)cn3c2CC(=O)N(C)C)cc1 [zolpidem]
clinical changes after zolpidem [1]: no marked clinical changes | ability to use scissors ([1]; for the next few hours until drug action subsided): able to use scissors | time to clinical improvement ([2]; 10 mg zolpidem): ≤ 1 h | patients improved clinically ([2]; family of five patients, 10 mg zolpidem): four | ataxia, intention tremor and titubation ([2]; patient P1): improved moderately | ataxia, intention tremor and titubation ([2]; patient P2): improved | ataxia, intention tremor and titubation ([2]; patient P3): improved moderately | clinical improvement ([2]; patient P4): no improvement | ataxia, intention tremor and titubation ([2]; patient P5): slightly improved | closing of left eye ([3]; after zolpidem): they could | drinking fluids ([3]; on zolpidem treatment): able to drink fluids directly from a cup | tonus of facial nerves ([3]; on zolpidem treatment): improved | hearing (pre and post-zolpidem audiograms) ([4]; after 10 mg zolpidem): improved | sleepiness ([4]; after 10 mg zolpidem): slightly sleepy | speech ability ([4]; after 10 mg zolpidem): improved markedly | persistence of hearing and speech improvements ([4]; even after halving the zolpidem dose): remained for the duration of drug action | defect in the right parietal aspect of the brain [5]: remained unchanged | obsessive-compulsive symptoms (cessation of verbal iterations) (Parkinson's disease): improved | symptoms of PD (akinesia and rigidity) (Parkinson's disease): improved | state of consciousness after drug application (semi-comatose patient): exits their permanent vegetative state | brain perfusion (abnormal baboon; brain-abnormal baboon): asymmetric increased perfusion
